Test results reported in ChEMBL document CHEMBL4828722, “The synthesis and bioactivity of pyrrolo[2,3-d]pyrimidine derivatives as tyrosine kinase inhibitors for NSCLC cells with EGFR mutations” (Eur J Med Chem, 2021).
Calls of active or inactive are those of the source. The rule behind the calls is not given here.

Tests used:
[1] = biological target: Ribosomal protein S6 kinase beta-1 (Homo sapiens) (UniProt P23443); assay: Inhibition of P70S6K phosphorylation in human NCI-H1975 cells at 0.1 to 5 uM incubated for 2 hrs by immunoblotting analysis; format: cell-based; conditions: dose 0.1-5 µM
HCC827 [2] = assay: Induction of apoptosis in human HCC827 cells harboring EGFR del E746-A750 mutant assessed as live cells at 0.5 uM measured after 18 hrs by Annexin V-FITC/PI staining based flow cytometry analysis (Rvb= 87.5%); format: functional
NCI-H1975 [3] = assay: Induction of apoptosis in human NCI-H1975 cells harboring EGFR L858R/T790M mutant assessed as late apoptotic cells at 0.5 uM measured after 18 hrs by Annexin V-FITC/PI staining based flow cytometry analysis (Rvb= 0.1%); format: functional
HCC827 [4] = assay: Induction of apoptosis in human HCC827 cells harboring EGFR del E746-A750 mutant assessed as early apoptotic cells at 5 uM measured after 18 hrs by Annexin V-FITC/PI staining based flow cytometry analysis (Rvb= 9.6%); format: functional
HCC827 [5] = assay: Induction of cell cycle arrest in human HCC827 cells harboring EGFR del E746-A750 mutant assessed as accumulation of cells in G2/M phase at 1 uM measured after 18 hrs by PI/RNaseA staining based flow cytometry analysis (Rvb= 16.78%); format: functional
A549 [6] = assay: Induction of cell cycle arrest in human A549 cells harboring wild type EGFR assessed as accumulation of cells in G0/G1 phase at 1 uM measured after 18 hrs by PI/RNaseA staining based flow cytometry analysis (Rvb= 58.27%); format: functional
NCI-H1975 [7] = assay: Induction of cell cycle arrest in human NCI-H1975 cells harboring EGFR L858R/T790M mutant assessed as accumulation of cells in G0/G1 phase at 5 uM measured after 18 hrs by PI/RNaseA staining based flow cytometry analysis (Rvb= 42.69%); format: functional
NCI-H1975 [8] = assay: Induction of apoptosis in human NCI-H1975 cells harboring EGFR L858R/T790M mutant assessed as early apoptotic cells at 0.5 uM measured after 18 hrs by Annexin V-FITC/PI staining based flow cytometry analysis (Rvb= […]); format: functional
NCI-H1975 [9] = assay: Induction of apoptosis in human NCI-H1975 cells harboring EGFR L858R/T790M mutant assessed as total apoptotic cells at 5 uM measured after 18 hrs by Annexin V-FITC/PI staining based flow cytometry analysis (Rvb= 9.2%); format: functional
A549 [10] = assay: Induction of cell cycle arrest in human A549 cells harboring wild type EGFR assessed as accumulation of cells in G0/G1 phase at 5 uM measured after 18 hrs by PI/RNaseA staining based flow cytometry analysis (Rvb= 58.27%); format: functional
A549 [11] = assay: Induction of cell cycle arrest in human A549 cells harboring wild type EGFR assessed as accumulation of cells in S phase at 0.5 uM measured after 18 hrs by PI/RNaseA staining based flow cytometry analysis (Rvb= 33.26%); format: functional
HCC827 [12] = assay: Induction of cell cycle arrest in human HCC827 cells harboring EGFR del E746-A750 mutant assessed as accumulation of cells in G0/G1 phase at 1 uM measured after 18 hrs by PI/RNaseA staining based flow cytometry analysis (Rvb= 49.60%); format: functional
NCI-H1975 [13] = assay: Inhibition of AKT phosphorylation in human NCI-H1975 cells at 0.1 to 5 uM incubated for 2 hrs by immunoblotting analysis; format: cell-based; conditions: dose 0.1-5 µM
BEAS-2B = assay: Cytotoxicity against human BEAS-2B cells assessed as reduction in cell viability measured after 48 hrs by CCK8 assay; format: cell-based
HCC827 [14] = assay: Induction of apoptosis in human HCC827 cells harboring EGFR del E746-A750 mutant assessed as total apoptotic cells at 5 uM measured after 18 hrs by Annexin V-FITC/PI staining based flow cytometry analysis (Rvb= 10.8%); format: functional
HCC827 [15] = assay: Cytotoxicity against human HCC827 cells harboring EGFR del E746-A750 mutant assessed as reduction in cell viability measured after 48 hrs by CCK8 assay; format: functional, cell-based; conditions: HCC827, 48 h
[16] = biological target: Signal transducer and activator of transcription 3 (Homo sapiens) (UniProt P40763); assay: Inhibition of STAT3 phosphorylation at Ser727 residue in human HBE cells at 5 uM incubated for 2 hrs by immunoblotting analysis; format: cell-based
A549 [17] = assay: Induction of cell cycle arrest in human A549 cells harboring wild type EGFR assessed as accumulation of cells in G0/G1 phase at 0.5 uM measured after 18 hrs by PI/RNaseA staining based flow cytometry analysis (Rvb= 58.27%); format: functional
NCI-H1975 [18] = assay: Induction of apoptosis in human NCI-H1975 cells harboring EGFR L858R/T790M mutant assessed as early apoptotic cells at 5 uM measured after 18 hrs by Annexin V-FITC/PI staining based flow cytometry analysis (Rvb= […]); format: functional
A549 [19] = assay: Induction of cell cycle arrest in human A549 cells harboring wild type EGFR assessed as accumulation of cells in G2/M phase at 1 uM measured after 18 hrs by PI/RNaseA staining based flow cytometry analysis (Rvb= 8.47%); format: functional
NCI-H1975 [20] = assay: Induction of cell cycle arrest in human NCI-H1975 cells harboring EGFR L858R/T790M mutant assessed as accumulation of cells in G2/M phase at 5 uM measured after 18 hrs by PI/RNaseA staining based flow cytometry analysis (Rvb= 17.33%); format: functional
HBE = assay: Inhibition of AKT/S6 phosphorylation […] in human HBE cells at 5 uM incubated for 2 hrs by immunoblotting analysis; format: cell-based
NCI-H1975 [21] = assay: Induction of apoptosis in human NCI-H1975 cells harboring EGFR L858R/T790M mutant assessed as live cells at 5 uM measured after 18 hrs by Annexin V-FITC/PI staining based flow cytometry analysis (Rvb= 89.4%); format: functional
NCI-H1975 [22] = assay: Induction of cell cycle arrest in human NCI-H1975 cells harboring EGFR L858R/T790M mutant assessed as accumulation of cells in G0/G1 phase at 0.5 uM measured after 18 hrs by PI/RNaseA staining based flow cytometry analysis (Rvb= 42.69%); format: functional
HCC827 [23] = assay: Inhibition of AKT phosphorylation in human HCC827 cells at 0.1 to 5 uM incubated for 2 hrs by immunoblotting analysis; format: cell-based; conditions: dose 0.1-5 µM
HCC827 [24] = assay: Induction of cell cycle arrest in human HCC827 cells harboring EGFR del E746-A750 mutant assessed as accumulation of cells in S phase at 5 uM measured after 18 hrs by PI/RNaseA staining based flow cytometry analysis (Rvb= 33.62%); format: functional
NCI-H1975 [25] = assay: Induction of cell cycle arrest in human NCI-H1975 cells harboring EGFR L858R/T790M mutant assessed as accumulation of cells in S phase at 0.5 uM measured after 18 hrs by PI/RNaseA staining based flow cytometry analysis (Rvb= 39.78%); format: functional
HCC827 [26] = assay: Induction of apoptosis in human HCC827 cells harboring EGFR del E746-A750 mutant assessed as late apoptotic cells at 0.5 uM measured after 18 hrs by Annexin V-FITC/PI staining based flow cytometry analysis (Rvb= 1.2%); format: functional

Ribosomal protein S6 kinase beta-1 (Homo sapiens), sequence (P23443 whole entry, looked up): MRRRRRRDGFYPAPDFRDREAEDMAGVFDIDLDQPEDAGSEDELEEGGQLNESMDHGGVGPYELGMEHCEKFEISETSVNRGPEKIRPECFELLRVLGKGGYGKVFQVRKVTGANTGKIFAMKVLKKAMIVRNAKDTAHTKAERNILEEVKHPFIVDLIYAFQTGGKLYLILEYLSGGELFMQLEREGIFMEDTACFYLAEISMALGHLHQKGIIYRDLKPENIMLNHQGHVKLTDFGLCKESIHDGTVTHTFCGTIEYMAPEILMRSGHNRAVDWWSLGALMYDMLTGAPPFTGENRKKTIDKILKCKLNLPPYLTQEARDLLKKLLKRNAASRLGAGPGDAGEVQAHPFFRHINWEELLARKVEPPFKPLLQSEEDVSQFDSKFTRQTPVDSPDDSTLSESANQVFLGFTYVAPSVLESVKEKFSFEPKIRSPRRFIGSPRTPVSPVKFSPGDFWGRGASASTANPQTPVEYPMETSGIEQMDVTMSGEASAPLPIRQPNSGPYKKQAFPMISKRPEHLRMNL
Signal transducer and activator of transcription 3 (Homo sapiens), sequence (P40763 whole entry): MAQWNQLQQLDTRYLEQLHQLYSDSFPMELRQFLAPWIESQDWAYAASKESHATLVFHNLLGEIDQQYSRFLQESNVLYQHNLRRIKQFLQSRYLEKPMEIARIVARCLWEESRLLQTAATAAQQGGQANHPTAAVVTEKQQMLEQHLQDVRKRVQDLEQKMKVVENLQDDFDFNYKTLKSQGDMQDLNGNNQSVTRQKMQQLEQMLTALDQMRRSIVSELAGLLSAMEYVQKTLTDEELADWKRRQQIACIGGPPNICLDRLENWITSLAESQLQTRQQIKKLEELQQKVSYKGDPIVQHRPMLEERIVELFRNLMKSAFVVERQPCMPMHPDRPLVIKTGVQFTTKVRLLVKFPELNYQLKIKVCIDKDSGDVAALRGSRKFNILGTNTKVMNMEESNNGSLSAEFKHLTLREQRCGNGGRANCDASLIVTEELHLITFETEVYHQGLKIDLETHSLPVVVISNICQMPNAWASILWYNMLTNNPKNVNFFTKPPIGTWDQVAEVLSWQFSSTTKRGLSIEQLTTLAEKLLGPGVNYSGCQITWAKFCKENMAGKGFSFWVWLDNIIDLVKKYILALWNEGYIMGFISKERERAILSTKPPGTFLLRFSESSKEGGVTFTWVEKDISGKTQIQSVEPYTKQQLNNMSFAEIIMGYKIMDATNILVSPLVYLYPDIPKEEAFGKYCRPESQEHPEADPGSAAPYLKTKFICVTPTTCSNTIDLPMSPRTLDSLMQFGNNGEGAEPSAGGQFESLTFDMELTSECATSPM

Compound | inhibition [1] | Activity (HCC827 [2]) | Activity (NCI-H1975 [3]) | Activity (HCC827 [4]) | Activity (HCC827 [5]) | Activity (A549 [6]) | Activity (NCI-H1975 [7]) | Activity (NCI-H1975 [8]) | Activity (NCI-H1975 [9]) | Activity (A549 [10]) | Activity (A549 [11]) | Activity (HCC827 [12]) | inhibition (NCI-H1975 [13]) | IC50 (BEAS-2B) | Activity (HCC827 [14]) | IC50 (HCC827 [15]) | inhibition [16] | Activity (A549 [17]) | Activity (NCI-H1975 [18]) | Activity (A549 [19]) | further results
C=CC(=O)Nc1cccc(Oc2nc(Nc3ccc(N4CCN(C)CC4)c([N+](=O)[O-])c3)nc3[nH]ccc23)c1 | Active | 68.2% | 0.3% | 10.9% | 11.55% | 70.46% | 80.34% | 12.4% | 13.5% | 82.55% | 27.39% | 77.64% | Active | 3680 nM | 30.3% | 110 nM | inactive | 62.63% | 13.2% | 8.33% | Activity (NCI-H1975 [20]): 9.63%; inhibition (HBE): inactive; Activity (NCI-H1975 [21]): 84.7%; Activity (NCI-H1975 [22]): 64.89%; inhibition (HCC827 [23]): Active; Activity (HCC827 [24]): 4.36%; Activity (NCI-H1975 [25]): 20.79%; Activity (HCC827 [26]): 11.4%
C=CC(=O)Nc1cccc(Oc2nc(Nc3ccc(N4CCN(C)CC4)c(N)c3)nc3[nH]ccc23)c1 | Active | 69.1% | 0.3% | 12.1% | 7.18% | 64.23% | 80.62% | 16.1% | 16.1% | 85.05% | 29.06% | 72.43% | Active | 7800 nM | 28.7% | 46 nM | inactive | 60.45% | 15.9% | 9.7% | Activity (NCI-H1975 [20]): 9.23%; inhibition (HBE): inactive; Activity (NCI-H1975 [21]): 81.9%; Activity (NCI-H1975 [22]): 64.04%; inhibition (HCC827 [23]): Active; Activity (HCC827 [24]): 13.93%; Activity (NCI-H1975 [25]): 19.32%; Activity (HCC827 [26]): 12.5%
C=CC(=O)Nc1cccc(Oc2nc(Nc3ccc(N4CCN(C)CC4)c(F)c3)nc3[nH]ccc23)c1 [ABIVERTINIB] | Active | 67.9% | 1.2% | 13.8% | 11.63% | 62.04% | 79.06% | 8.3% | 11.7% | 77.6% | 30.03% | 73% | Active | 3680 nM | 35.4% | 100 nM | inactive | 59.82% | 11.3% | 8.97% | Activity (NCI-H1975 [20]): 11.14%; inhibition (HBE): inactive; Activity (NCI-H1975 [21]): 86.3%; Activity (NCI-H1975 [22]): 61.74%; inhibition (HCC827 [23]): Active; Activity (HCC827 [24]): 10.83%; Activity (NCI-H1975 [25]): 21.24%; Activity (HCC827 [26]): 18.3%
